Measured values published in patent US20260191815A1, “THIOACRYLAMIDE DERIVATIVES FOR USE IN THE PREVENTION OR TREATMENT OF LIVER FIBROSIS” (CMR CUREDIAB METABOLIC RESEARCH GMBH, priority 2022, published 2026).

Legend:
[1] = test system: alpha-1 type 1 collagen (COL1A1) protein in LX2 cells; test: Simple Western of COL1A1 protein in TGF-β1-stimulated LX2 hepatic stellate cells; assay type: cell-based, human; conditions: for upregulation of COL1A1 in TGF-β1-treated LX2 cells: 10 μM, 30 min pretreatment, then 5 ng/ml TGF-β1 for 24 h; for protein abundance of COL1A1: sole treatment 10 μM for 24 h, LX2 cells, no TGF-β1
Protocol: (§1) The human hepatic stellate cell line LX2 was purchased from Merck. The cells were used up to passage ten and incubated under sterile conditions at 37° C. and 5% CO2. The cells were cultivated in medium containing Dulbecco's Modified Eagle's Medium with 4.5 g/l glucose (ThermoFisher), 4 mmol/l glutamine (ThermoFisher), 2% fetal bovine serum (FBS) (Merck), 100 U/ml penicillin and 100 μg/ml streptomycin (Merck). After 2 days, LX2 cells were starved for FBS for 24 h and then pretreated with 10 μM HK1 (Taros Chemicals GmbH & Co. KG) or 10 μM HK3 (Taros Chemicals GmbH & Co. KG) for 30 min. Subsequently, 5 ng/ml recombinant TGF-β1 (R&D Systems, Minneapolis, MN, USA) was added to the hepatic stellate cell cultures for 24 h. LX2 cells were also incubated with 5 ng/ml TGF-β1 alone as positive control for the hepatic stellate cell activation. Recombinant TGF-β1 was dissolved in sterile 4 mmol/l HCl (Merck) containing 0.1% bovine serum albumin (Roth Karlsruhe, Germany) as carrier protein. HK1 and HK3 were dissolved in sterile dimethyl sulfoxide (DMSO) (Sigma-Aldrich, Munich, Germany). Stimulations with 10 μM HK1, 10 μM HK3 and the corresponding vehicles (HCl and DMSO with or without HCl) alone for 24 h were also included as treatments.
For the measurement of the pro-fibrotic proteins, Western Blotting was performed. Proteins were extracted from whole cell lysate of LX2 cells using RIPA lysis buffer containing 50 mmol/l Tris-HCl (pH 8.0), 150 mmol/l NaCl, 1% IGEPAL® CA-630, 0.5% sodium deoxycholate, 0.1% sodium dodecyl sulfate, 10% PhosSTOP Phosphatase Inhibitor Cocktail (Roche, Basel, Switzerland) and 10% cOmplete Mini Protease Inhibitor Cocktail (Roche). Lysates were centrifuged at 14850×g for 15 min at 4° C. Then, the total protein content of the lysates was determined using a bicinchoninic acid protein assay (ThermoFisher Scientific) in accordance with the manufacturer's instructions. The quantification of protein abundance was performed by Simple Western size-based assays using a 12-230 kDa and 66-440 kDa Separation Module (ProteinSimple, San Jose, CA, USA) according to the manufacturer's instructions. This fully automated Western blotting system is based on a capillary electrophoresis technology. The separation, immobilization to the capillary wall via a proprietary, photoactivated capture chemistry and immunodetection of the proteins using a horseradish peroxidase (HRP)-conjugated secondary antibody and chemiluminescent substrate take place directly in the capillary without gel separation and transfer steps to blotting paper. The chemiluminescence is measured at multiple exposure times and automatically quantified by the Compass for Simple Western software (version 4.1.0) (ProteinSimple). The chemiluminescent signal for immunodetected proteins, which can be represented as an electropherogram or virtual blot-like image, is automatically quantified by calculation of the area under the curve of the peak.
The software reports the molecular weight, the area (in an arbitrary unit and in percent) and signal to noise ratio for each protein detected. The primary antibodies for the recognition of endogenous levels of total alpha-1 type 1 collagen (COL1A1) protein (#72026) and total fibronectin 1 (FN1) protein (#26836) were purchased from Cell Signaling Technology (Danvers, MA, USA). The anti-rabbit HRP-linked secondary antibody was from ProteinSimple. […]
(§2) Differences were analysed by one-way ANOVA followed by the Tukey method as correction for multiple testing.

[2] = test system: interleukin-6 (IL-6) secretion by LX2 cells; test: Olink Inflammation immunoassay of LX2 supernatants: IL-6; assay type: cell-based, human; conditions: for amount of secreted IL-6 after combined treatment with TGF-β1: 10 μM + 5 ng/ml TGF-β1, LX2 cells
Protocol: as §1
LX2 cells were cultured and treated as described in Example 1. After the incubation time, the supernatants of LX2 cells were collected, centrifuged for 10 min at 2000×g at 4° C. and transferred to new tubes to measure 92 proteins in the cell culture supernatants simultaneously using the Olink Inflammation multiplex immunoassay (Olink proteomics, Uppsala, Sweden). This panel covers 92 proteins, including pro- and anti-inflammatory cytokines, growth factors, chemokines and factors involved in biological processes such as apoptosis, inflammatory and immune response, cell adhesion, chemotaxis, or fibrosis. This protein quantification method is based on a proximity extension assay technology, which combines a dual-recognition immunoassay using two matched antibodies labelled with DNA oligonucleotides, with a polymerase chain reaction (PCR) amplification and a microfluidic quantitative real-time PCR as readout. The biomarker concentrations are given as normalized protein expression (NPX) values, which were generated from the threshold cycle values from the qPCR, and represent an arbitrary unit on a log 2 scale.
as §2

[3] = test system: caspase 3/7 activity in HepG2 cells; test: Caspase 3/7 activity provoked by palmitate in HepG2 cells; assay type: cell-based; conditions: for reduction of the caspase 3/7 activity provoked by palmitate, compared among thioacrylamide derivatives: 100 nM + palmitate 200 μM, n=4; for activity at 10 µM: Homo sapiens, 10 μM pre-treatment 30 min + palmitate 200 μM, 24 h, read-out: caspase 3/7 activity, % of control
Protocol: The potential protective effect of HK1 and HK3 on caspase 3/7 activity in HepG2 cells and primary human hepatocytes was analysed.
HepG2 cells were obtained from Merck (Darmstadt, Germany) (ECACC-certified), while primary human hepatocytes were obtained from Thermo Fisher Scientific (Waltham, MA, USA), and all were cultured according to the instructions of the respective manufacturers. During experiments, cells were cultured in serum-free medium. Unless otherwise stated, cells were treated with 200 μM bovine serum albumin (BSA)-conjugated palmitate (Cayman Chemicals, Ann Arbor, MI) alone or in combination with 10 μM HK1 (Taros Chemicals GmbH & Co. KG, Dortmund, Germany) and HK3 (Taros Chemicals GmbH & Co. KG, Dortmund, Germany) 30 min prior to palmitate exposure for 24 hours. The vehicle BSA was used according to the palmitate concentration and DMSO according to HK1 and HK3 concentration. 2 μM Staurosporine (Abcam, Cambridge, GB) was used as a positive and 100 μM Caspase 3/7 inhibitor (CI) (Cayman Chemicals) as a negative control.
Differences were analysed by one-way ANOVA.
A hepatoprotective effect was determined as described in Example 4. A treatment was performed with HK1, HK2, HK3, HK4 or HK5 (100 nM) either alone or in combination with palmitate (200 μM).
Differences were analysed by one-way ANOVA, n=4.

SMILES	upregulation of COL1A1 in TGF-β1-treated LX2 cells [1]	protein abundance of COL1A1 [1]	attenuation of protein content of IL-6 compared to TGF-treated LX2 cells ([2]; 10 μM + 5 ng/ml TGF-β1) [%]	amount of secreted IL-6 after combined treatment with TGF-β1 [2]	reduction of the caspase 3/7 activity provoked by palmitate, compared among thioacrylamide derivatives [3]	activity at 10 µM [3] [%]
Cc1cc(NC(=S)/C(C#N)=C(\O)C2CC2)ccc1F [HK1, 2-Cyano-3-cyclopropyl-N-(4-fluoro-3-methyl-phenyl)-3-hydroxy-thioacrylamide]	completely suppressed	no impact	59	downregulated	stronger reduction	263
Cc1cc(NC(=S)/C(C#N)=C(\O)C2CC2)ccc1[N+](=O)[O-] [HK3, 2-Cyano-3-cyclopropyl-3-hydroxy-N-(3-methyl-4-nitro-phenyl)-thioacrylamide]	completely suppressed	no impact	–	downregulated	strongest reduction	42.3
